Patent publication US12195493B2, “Reversibly blocked nucleoside analogues and their use” (MGI Tech Co., Ltd., priority 2016, dated 2025)
Entries after “also recorded” stand apart in the source; their conditions may differ.

Experiments:
[1] = 3′-O-Cyanoethyl cleavage in solution or on Biochips; details: added reagent in cleavage buffer, FIGS. 2 and 3
[2] = test system: polymerase; assay: Polymerase incorporation in sequencing by synthesis on nanoball arrays (FIG. 1); assay type: biochemical; details: compared with unlabeled (cold) control 3′-O-azidomethyl-dTTP
Description: (§1) Allenyl-dTTP and cyanoethenyl-dTTP were incubated at room temperature for 24 hours, or 65° C. for 2 hours. Fresh mixes were also made the day of the experiment. Allenyl-dTTP or cyanoethenyl-dTTP were mixed with unlabeled AGC (AGC-Cold) and used as both the hot (labeled) and cold (unlabeled) chase. Nanoball arrays were imaged to obtain a control image. Then, the array was incubated with labeled mixes to check for incorporation on unblocked ends. […] Moreover, both allenyl-dTTP and cyanoethenyl-dTTP are stable at room temperature for 24 hours and 65° C. for 2 hours as indicated by their ability to efficiently incorporate into polymerization product and thereby block subsequent polymerization and incorporation of the hot chase label.

[3] = Stability after incubation, read out by incorporation and blocking of hot chase label; assay type: physicochemical
Description: as §1

[4] = Cleavage studies with a variety of nucleophiles at 50° C. (Example 6); assay type: physicochemical
Description: Cleavage studies were performed according to the scheme shown below using a variety of nucleophiles. The nucleophiles, concentration, pH, and solvent are indicated for each study. The nucleoside analogue containing a 3′-O-blocking group and a linking group were treated with a nucleophile at 50° C. in solvent to form analogues having both the blocking group and linking group cleaved 13 and only the linking group cleaved 15. SM indicates starting material.
Table of Results (Experimental Conditions: T=50° C.; 1.0 mg 12/mL solvent).

[5] = Monitoring cleavage of 3′-O reversible blocker by LC-MS (Example 2); assay type: physicochemical
Description: Cleavage reactions were performed using 5 mg of compound 8 (3′-O-cyanoethyenyl-thymidine) in 0.25 mL of acetonitrile and 0.25 mL of buffer. Cleavage was monitored by LC-MS and the results are depicted in the table below.

## O=P([O-])([O-])OP(=O)([O-])[O-].[K+].[K+].[K+].[K+] [K4PPi]
[1]
  effect on cleavage efficiency: improved effect

## Cc1cn([C@H]2C[C@H](OC=CC#N)[C@@H](COP(=O)(O)OP(=O)(O)OP(=O)(O)O)O2)c(=O)[nH]c1=O [cyanoethenyl-dTTP, 3′-O-cyanoethenyl-thymidine triphosphate]
[2]
  effectiveness as polymerase substrate for sequencing by synthesis: as effective a polymerase substrate for sequencing by synthesis as the unlabeled control 3′-O-azidomethyl-dTTP
[2]; listed as cyanoethyl-dTTP
  effectiveness as polymerase substrate for sequencing by synthesis: as effective polymerase substrates for sequencing as the cold control, 3′-azidomethyl-dTTP
[3]; 65° C. for 2 hours
  stability: stable
[3]; room temperature for 24 hours
  stability: stable

## N#C/C=C/O[C@H]1C[C@H](n2cc(C#CCNC(=O)C(F)(F)F)c(=O)[nH]c2=O)O[C@@H]1CO [compound 12]
[4]; Entry 22, Morpholine 1.0 M, pH 9.0, Water + 10% MeCN, t = 1 h
  amount of the product obtained (SM = starting material): 25% SM + 40% of (15) + 35% of unidentified species
[4]; Entry 22, Morpholine 1.0 M, pH 9.0, Water + 10% MeCN, t = 18 h
  amount of the product obtained (SM = starting material): No SM 40% of (15) + 60% of unidentified species
[4]; Entry 24, Cleland's reagent (dithiothreitol) 1.0 M, pH 9.0, Water + 10% MeCN, t = 1 h
  amount of the product obtained (SM = starting material): 5% SM + 95% of unidentified species
[4]; Entry 24, Cleland's reagent (dithiothreitol) 1.0 M, pH 9.0, Water + 10% MeCN, t = 18 h
  amount of the product obtained (SM = starting material): No SM + unidentified species
[4]; Entry 25, 4-Methoxy-N-methylaniline 1.0 M, pH 8.3, Water/MeCN (1:2), t = 1 h
  amount of the product obtained (SM = starting material): 95% SM + 5% of unidentified species
[4]; Entry 25, 4-Methoxy-N-methylaniline 1.0 M, pH 8.3, Water/MeCN (1:2), t = 18 h
  amount of the product obtained (SM = starting material): 95% SM + 5% of unidentified species
[4]; Entry 26, N,N′-Dimethylene diamine 1.0 M, pH 9.0, Water + 10% MeCN, t = 1 h
  amount of the product obtained (SM = starting material): 5% SM + 20% of (15) + 75% of unidentified species
[4]; Entry 26, N,N′-Dimethylene diamine 1.0 M, pH 9.0, Water + 10% MeCN, t = 18 h
  amount of the product obtained (SM = starting material): No SM + 20% of (15) + 80% of unidentified species
[4]; Entry 27, N-Methylhydroxyl amine hydrochloride 1.0 M, pH 9.0, Water + 10% MeCN, t = 1 h
  amount of the product obtained (SM = starting material): 16% Product (13) + 10% of (15) + 74% of unidentified species
[4]; Entry 27, N-Methylhydroxyl amine hydrochloride 1.0 M, pH 9.0, Water + 10% MeCN, t = 18 h
  amount of the product obtained (SM = starting material): 10% of (15) + 90% of unidentified species
[4]; Entry 28, N,N′-dimethyl-cis-cyclohexane-1,2-diamine 1.0 M, pH 9.0, Water/MeCN (2:1), t = 1 h
  amount of the product obtained (SM = starting material): 60% SM + 35% of (15) + 5% of unidentified species
[4]; Entry 28, N,N′-dimethyl-cis-cyclohexane-1,2-diamine 1.0 M, pH 9.0, Water/MeCN (2:1), t = 18 h
  amount of the product obtained (SM = starting material): 30% SM + 50% of (15) + 20% of unidentified species

## F [F^−]
[1]
  effect on cleavage efficiency: improved effect

## C=C=CO[C@H]1C[C@H](n2cc(C)c(=O)[nH]c2=O)O[C@@H]1COP(=O)(O)OP(=O)(O)OP(=O)(O)O [allenyl-dTTP, 3′-O-allenyl-thymidine triphosphate]
[2]
  effectiveness as polymerase substrate for sequencing by synthesis: as effective a polymerase substrate for sequencing by synthesis as the unlabeled control 3′-O-azidomethyl-dTTP; also recorded: as effective polymerase substrates for sequencing as the cold control, 3′-azidomethyl-dTTP
[3]; 65° C. for 2 hours
  stability: stable
[3]; room temperature for 24 hours
  stability: stable

## Cc1cn([C@H]2C[C@H](OC=CC#N)[C@@H](CO)O2)c(=O)[nH]c1=O [compound 8, 3′-O-cyanoethenyl-thymidine]
[5]; 10 equivalents of dimethylamine in acetonitrile/0.1 M TEAB
  time to complete cleavage: 20 to 30 min
[5]; 40 equivalents of dimethylamine in acetonitrile/0.1 M TEAB
  time to complete cleavage: ≤ 10 min
[5]; 40 equivalents of dimethylamine in acetonitrile/0.5 M phosphate buffer
  time to complete cleavage: 10 to 20 min
[5]; 40 equivalents of dimethylamine in acetonitrile/1 M Tris buffer
  time to complete cleavage: ≤ 10 min
